Legend:
[1] = molecular target: S. pyogenes IMPDH (Streptococcus pyogenes, UniProt P0C0H6); assay: biochemical
[2] = molecular target: T1, CpIMPDH (Cryptosporidium parvum, UniProt Q8T6T2); conditions: read-out: IC50 against CpIMPDH
T1 sequence (Q8T6T2 1-400): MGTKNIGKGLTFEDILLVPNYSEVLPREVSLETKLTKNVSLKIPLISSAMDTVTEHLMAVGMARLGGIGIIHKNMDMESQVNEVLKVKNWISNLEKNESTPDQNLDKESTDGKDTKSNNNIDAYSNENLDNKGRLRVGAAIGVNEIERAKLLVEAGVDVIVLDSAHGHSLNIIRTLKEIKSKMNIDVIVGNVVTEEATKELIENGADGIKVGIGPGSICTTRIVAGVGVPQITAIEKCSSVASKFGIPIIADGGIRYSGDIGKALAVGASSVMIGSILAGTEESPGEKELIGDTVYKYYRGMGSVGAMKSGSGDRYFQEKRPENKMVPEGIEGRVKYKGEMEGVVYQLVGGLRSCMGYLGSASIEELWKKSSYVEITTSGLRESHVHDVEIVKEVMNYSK

[3] = test system: Bu. mallei IMPDH; assay type: biochemical, Burkholderia mallei; conditions: FIG. 24
[4] = molecular target: B. anthracis IMPDH (Bacillus anthracis, UniProt A0A6L8P2U9); assay: biochemical
Chain of B. anthracis IMPDH (A0A6L8P2U9 1-487): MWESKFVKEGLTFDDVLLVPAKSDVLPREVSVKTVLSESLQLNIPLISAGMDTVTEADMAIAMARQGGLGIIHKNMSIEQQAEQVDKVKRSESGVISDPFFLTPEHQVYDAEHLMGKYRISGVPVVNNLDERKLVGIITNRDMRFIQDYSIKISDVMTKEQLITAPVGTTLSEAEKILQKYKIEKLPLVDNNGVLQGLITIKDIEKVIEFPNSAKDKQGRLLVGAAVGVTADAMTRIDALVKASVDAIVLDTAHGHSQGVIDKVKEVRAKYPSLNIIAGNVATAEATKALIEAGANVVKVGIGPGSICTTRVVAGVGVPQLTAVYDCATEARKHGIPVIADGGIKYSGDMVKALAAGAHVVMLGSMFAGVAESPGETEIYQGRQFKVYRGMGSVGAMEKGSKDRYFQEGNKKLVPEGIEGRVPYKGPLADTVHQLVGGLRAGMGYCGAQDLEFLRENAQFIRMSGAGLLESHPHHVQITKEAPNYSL

[5] = molecular target: F. tularensis IMPDH (Francisella tularensis, UniProt Q5NFC2); assay: biochemical
Chain of F. tularensis IMPDH (Q5NFC2 1-486): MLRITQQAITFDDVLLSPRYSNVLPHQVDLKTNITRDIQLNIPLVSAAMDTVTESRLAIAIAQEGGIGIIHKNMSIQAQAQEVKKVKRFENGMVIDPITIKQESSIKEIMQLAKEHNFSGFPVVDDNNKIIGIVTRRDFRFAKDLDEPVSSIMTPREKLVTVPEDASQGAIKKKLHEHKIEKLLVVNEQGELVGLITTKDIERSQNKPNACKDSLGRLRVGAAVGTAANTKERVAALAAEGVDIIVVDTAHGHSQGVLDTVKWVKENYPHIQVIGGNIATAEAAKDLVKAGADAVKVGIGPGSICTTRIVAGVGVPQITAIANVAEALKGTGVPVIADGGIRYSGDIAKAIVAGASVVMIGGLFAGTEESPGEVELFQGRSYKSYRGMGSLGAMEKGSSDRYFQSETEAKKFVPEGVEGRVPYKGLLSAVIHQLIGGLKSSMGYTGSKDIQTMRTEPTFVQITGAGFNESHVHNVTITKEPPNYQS

[6] = Plasma pharmacokinetics in C57BL/6 mice; assay type: in vivo, mouse
Method: FIG. 32 tabulates the pharmacokinetic parameters for urea CpIMPDH inhibitors. C57BL/6 mice received a single dose of 250 mg/kg in 10% DMSO/corn oil by oral gavage.
Given the limited efficacy of current treatments, the pharmacokinetic and physicochemical properties required for in vivo efficacy have not been established. […] P82 is the primary product of P83 metabolism, so the concentration of P82 in plasma was also measured during P83 treatment.
PK was assessed at either the Stony Brook Translation Experimental Laboratory Therapeutics (Stony Brook, NY) or GVK Biosciences (Hyderabad, India).

[7] = test system: gut microbiota; conditions: 250 mg/kg daily, 7 days, compared with vehicle
[8] = molecular target: A. baumannii IMPDH (Acinetobacter baumannii, UniProt D0CF46); assay: biochemical
Chain of A. baumannii IMPDH (D0CF46 entry or part of it): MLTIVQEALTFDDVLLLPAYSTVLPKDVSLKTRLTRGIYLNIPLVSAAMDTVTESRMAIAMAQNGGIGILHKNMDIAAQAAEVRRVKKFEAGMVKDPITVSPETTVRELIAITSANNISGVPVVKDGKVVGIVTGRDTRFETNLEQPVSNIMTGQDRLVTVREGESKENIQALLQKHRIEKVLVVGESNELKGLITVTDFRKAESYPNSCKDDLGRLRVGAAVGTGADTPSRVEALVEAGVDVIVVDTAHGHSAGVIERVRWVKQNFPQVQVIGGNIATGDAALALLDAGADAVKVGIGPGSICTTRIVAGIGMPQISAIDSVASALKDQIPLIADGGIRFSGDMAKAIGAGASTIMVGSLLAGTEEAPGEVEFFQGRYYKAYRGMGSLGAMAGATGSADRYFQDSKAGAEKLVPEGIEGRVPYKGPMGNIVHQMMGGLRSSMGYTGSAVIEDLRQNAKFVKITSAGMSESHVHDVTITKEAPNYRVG

[9] = test system: Caco-2 cells; assay: Efflux from preloaded Caco-2 cells; assay type: in vitro ADME, human; conditions: preincubated with 100 μM
Method: FIG. 37 depicts the amount of P131 remaining in Caco-2 cells after the cells were loaded with different concentrations of P131 for 2 h at 37° C. in HBSS. The efflux tin is −1 h for loading at 100 μM and 2 h for 20 μM and 5 μM.
We preloaded Caco-2 cells with 5, 20 or 100 μM P131, then measured efflux (FIG. 37). The initial intracellular concentrations of P131 were dose dependent and scaled with the extracellular concentration for the 5 and 20 μM preincubation conditions. […] P131 efflux was very slow under all three conditions, with tin of 1-2 h.

[10] = test system: Caco-2 cells; assay: Uptake in Caco-2 cells; assay type: in vitro ADME, human; conditions: extracellular concentration 10 μM
Method: FIG. 33 tabulates urea CpIMPDH inhibitor permeability and uptake in Caco-2 TC7 cells. All compounds at 10 μM, pH 7.4 on both sides. Solid recovery >80% in all cases. a. Approximate intracellular concentration, assuming 4 μL of water for 1 mg of cellular protein.
To further investigate the relationship between intestinal accumulation and antiparasitic activity, we measured the uptake of the CpIMPDH inhibitors in Caco-2 cells, a widely used model of human intestinal epithelial cells. Uptake varied over a range of 2000-fold among the eight CpIMPDH inhibitors (FIG. 33). […] All of the other compounds accumulated intracellular concentrations in excess of the extracellular concentration. […] The concentrations of all the other compounds were lower by at least a factor of 10, but nevertheless exceeded the concentrations required to inhibit CpIMPDH.

[11] = Tissue distribution of P131 in mice; conditions: 24 h after a single 83 mg/kg oral dose
[12] = test system: C. parvum; conditions: IL-12 knockout mice, 250 mg/kg daily oral gavage

Chain of S. pyogenes IMPDH (P0C0H6 whole entry): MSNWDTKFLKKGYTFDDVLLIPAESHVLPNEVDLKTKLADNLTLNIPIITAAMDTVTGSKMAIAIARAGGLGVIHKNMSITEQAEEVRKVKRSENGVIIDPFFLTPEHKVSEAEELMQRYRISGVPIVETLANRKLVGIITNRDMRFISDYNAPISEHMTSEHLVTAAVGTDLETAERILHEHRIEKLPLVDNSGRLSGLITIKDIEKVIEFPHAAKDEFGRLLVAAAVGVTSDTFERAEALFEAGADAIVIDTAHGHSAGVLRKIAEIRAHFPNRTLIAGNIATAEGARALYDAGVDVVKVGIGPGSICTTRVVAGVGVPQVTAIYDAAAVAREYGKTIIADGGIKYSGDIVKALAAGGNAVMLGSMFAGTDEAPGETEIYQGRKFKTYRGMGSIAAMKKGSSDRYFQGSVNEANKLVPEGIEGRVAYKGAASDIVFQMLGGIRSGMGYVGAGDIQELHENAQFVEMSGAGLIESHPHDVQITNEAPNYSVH

With `Cn1nc(CC(=O)Nc2ccc3oc4ccccc4c3c2)c2ccccc2c1=O` [Compound D73, N-(dibenzo[b,d]furan-2-yl)-2-(3-methyl-4-oxo-3,4-dihydrophthalazin-1-yl)acetamide] the IC50 [1] was > 100000 nM, the IC50 [2] was 4 nM and the IC50 [3] was 100 nM. It also gave an IC50 [4] of 270 nM and an IC50 [5] of 60 nM.

In the case of `CC(=NOCCN)c1cccc(C(C)(C)NC(=O)Nc2ccc(Cl)c([N+](=O)[O-])c2)c1` [Compound P131], the plasma half-life ([6]; 250 mg/kg single oral dose, C57BL/6 mice) is reported as 4 h, the Cmax ([6]; 250 mg/kg single oral dose, C57BL/6 mice, read-out: maximal plasma concentration (Cmax)) is reported as 9 µM and the “plasma pharmacokinetic behavior / systemic distribution (in words)” value ([6]; mouse, in vivo) is reported as “poor systemic distribution”. The IC50 [4] was 210 nM, the “impact on fecal microbiota” value [7] was “no additional impact” and the IC50 [8] was 710 nM. For the same molecule, the “cytotoxicity to Caco-2 cells” value [9] was “Some cytotoxicity”, the “uptake/accumulation in Caco-2 cells (in words)” value [10] was “millimolar concentrations” and the “intestine and feces concentration over IC50 for CpIMPDH inhibition” value [11] was “more than 100 fold”. For the same molecule, the “in vivo antiparasitic activity, fecal oocysts (in words)” value [12] was “anticryptosporidial activity”.
